Test system: E. coli strain W3110
Assay: Synergy assays: Biolog chemical sensitivity panels with Group IB metal, coefficient of drug interaction (CDI) from relative growth
Assay type: cell-based
Conditions: for CDI (coefficient of drug interaction), copper mixed with biocide: Copper (mM) section; for CDI (coefficient of drug interaction): Gold section of Table 5; for CDI (coefficient of drug interaction), silver + biocide: E. coli; for CDI (coefficient of drug interaction), gold + biocide: Gold (μM)
[1] = 1st of 3 copper concentrations (value not shown), 3rd of four biocide concentrations
[2] = 1st of 3 copper concentrations (value not shown), 4th of four biocide concentrations
[3] = 2nd of 3 copper concentrations (value not shown), 3rd of four biocide concentrations
[4] = 2nd of 3 copper concentrations (value not shown), 4th of four biocide concentrations
[5] = 3rd of 3 copper concentrations (value not shown), 3rd of four biocide concentrations
[6] = 3rd of 3 copper concentrations (value not shown), 4th of four biocide concentrations
[7] = first of three gold concentrations (μM, value not given), biocide concentration 4 of 4
[8] = second of three gold concentrations (μM, value not given), biocide concentration 3 of 4
[9] = second of three gold concentrations (μM, value not given), biocide concentration 4 of 4
[10] = third of three gold concentrations (μM, value not given), biocide concentration 3 of 4
[11] = third of three gold concentrations (μM, value not given), biocide concentration 4 of 4
[12] = Silver 0.5 μM, 2nd of four biocide concentrations
[13] = Silver 0.5 μM, 4th of four biocide concentrations
[14] = Silver 1.0 μM, 2nd of four biocide concentrations
[15] = Silver 1.0 μM, 4th of four biocide concentrations
[16] = Silver 5.0 μM, 2nd of four biocide concentrations
[17] = Silver 5.0 μM, 4th of four biocide concentrations

O=C1C=C2C(=CCOC2O)O1 (centres unmarked) [patulin]
Tox: CDI (coefficient of drug interaction), copper mixed with biocide (1st of 3 copper concentrations (value not shown), 1st of four biocide concentrations) | CDI (coefficient of drug interaction), copper mixed with biocide (1st of 3 copper concentrations (value not shown), 2nd of four biocide concentrations) | CDI (coefficient of drug interaction), copper mixed with biocide [1] | CDI (coefficient of drug interaction), copper mixed with biocide [2] | CDI (coefficient of drug interaction), copper mixed with biocide (2nd of 3 copper concentrations (value not shown), 1st of four biocide concentrations) | CDI (coefficient of drug interaction), copper mixed with biocide (2nd of 3 copper concentrations (value not shown), 2nd of four biocide concentrations) | CDI (coefficient of drug interaction), copper mixed with biocide [3] | CDI (coefficient of drug interaction), copper mixed with biocide [4] | CDI (coefficient of drug interaction), copper mixed with biocide (3rd of 3 copper concentrations (value not shown), 1st of four biocide concentrations) | CDI (coefficient of drug interaction), copper mixed with biocide (3rd of 3 copper concentrations (value not shown), 2nd of four biocide concentrations) | CDI (coefficient of drug interaction), copper mixed with biocide [5] | CDI (coefficient of drug interaction), copper mixed with biocide [6] | CDI (coefficient of drug interaction) (first of three gold concentrations (μM, value not given), biocide concentration 2 of 4) | CDI (coefficient of drug interaction) (first of three gold concentrations (μM, value not given), biocide concentration 3 of 4) | CDI (coefficient of drug interaction) [7] | CDI (coefficient of drug interaction) (second of three gold concentrations (μM, value not given), biocide concentration 2 of 4) | CDI (coefficient of drug interaction) [8] | CDI (coefficient of drug interaction) [9] | CDI (coefficient of drug interaction) (third of three gold concentrations (μM, value not given), biocide concentration 2 of 4) | CDI (coefficient of drug interaction) [10] | CDI (coefficient of drug interaction) [11] | CDI (coefficient of drug interaction), silver + biocide [12] | CDI (coefficient of drug interaction), silver + biocide (Silver 0.5 μM, 3rd of four biocide concentrations) | CDI (coefficient of drug interaction), silver + biocide [13] | CDI (coefficient of drug interaction), silver + biocide [14] | CDI (coefficient of drug interaction), silver + biocide (Silver 1.0 μM, 3rd of four biocide concentrations) | CDI (coefficient of drug interaction), silver + biocide [15] | CDI (coefficient of drug interaction), silver + biocide [16] | CDI (coefficient of drug interaction), silver + biocide (Silver 5.0 μM, 3rd of four biocide concentrations) | CDI (coefficient of drug interaction), silver + biocide [17]

CCn1cc(C(=O)O)c(=O)c2cnc(N3CCNCC3)nc21 [pipemidic acid]
Tox: CDI (coefficient of drug interaction), copper mixed with biocide [1] | CDI (coefficient of drug interaction), copper mixed with biocide [2] | CDI (coefficient of drug interaction), copper mixed with biocide [3] | CDI (coefficient of drug interaction), copper mixed with biocide [4] | CDI (coefficient of drug interaction), copper mixed with biocide [5] | CDI (coefficient of drug interaction), copper mixed with biocide [6]

CCN1CCN(C(=O)N[C@@H](C(=O)N[C@@H]2C(=O)N3[C@@H]2SC(C)(C)[C@@H]3C(=O)O)c2ccccc2)C(=O)C1=O [piperacillin]
Tox: CDI (coefficient of drug interaction), gold + biocide (first of 3 gold concentrations, biocide concentration 4 of 4) | CDI (coefficient of drug interaction), gold + biocide (second of 3 gold concentrations, biocide concentration 4 of 4) | CDI (coefficient of drug interaction), gold + biocide (third of 3 gold concentrations, biocide concentration 4 of 4) | CDI (Silver 0.5 μM, biocide concentration 3 of 4) | CDI (Silver 0.5 μM, biocide concentration 4 of 4) | CDI (Silver 1.0 μM, biocide concentration 3 of 4) | CDI (Silver 1.0 μM, biocide concentration 4 of 4) | CDI (Silver 5.0 μM, biocide concentration 3 of 4) | CDI (Silver 5.0 μM, biocide concentration 4 of 4)

OC(CCN1CCCCC1)(c1ccccc1)c1ccccc1 [pridinol]
Tox: CDI (coefficient of drug interaction), copper mixed with biocide [2] | CDI (coefficient of drug interaction), copper mixed with biocide [4] | CDI (coefficient of drug interaction), copper mixed with biocide [6] | CDI (coefficient of drug interaction) [7] | CDI (coefficient of drug interaction) [8] | CDI (coefficient of drug interaction) [9] | CDI (coefficient of drug interaction) [10] | CDI (coefficient of drug interaction) [11] | CDI (coefficient of drug interaction), silver + biocide [12] | CDI (coefficient of drug interaction), silver + biocide [13] | CDI (coefficient of drug interaction), silver + biocide [14] | CDI (coefficient of drug interaction), silver + biocide [15] | CDI (coefficient of drug interaction), silver + biocide [16] | CDI (coefficient of drug interaction), silver + biocide [17]

From patent publication US11382328B2, “Rapid drug discovery methods for pathogen inactivation” (priority 2019, dated 2022)
